Assays:
Assay in all cases: Test E pre-/postemergence greenhouse herbicide test
Type in all cases: in vivo
[1] = system: arrowleaf sida (Sida rhombifolia); conditions: scale 0 to 100
Description: (§1) Seeds of plant species selected from corn (Zea mays), soybean (Glycine max), lambsquarters (Chenopodium album), poinsettia, wild (wild poinsettia, Euphorbia heterophylla), pigweed, palmer (palmer pigweed, Amaranthus palmeri), waterhemp (common waterhemp, Amaranthus rudis), surinam grass (Brachiaria decumbens), crabgrass, large (large crabgrass Digitaria sanguinalis), crabgrass, Brazil (Brazilian crabgrass, Digitaria horizontalis), panicum, fall (fall panicum, Panicum dichotomiflorum), foxtail, giant (giant foxtail, Setaria faberii), foxtail, green (green foxtail, Setaria viridis), goosegrass (Eleusine indica), johnsongrass (Sorghum halepense), ragweed (common ragweed, Ambrosia elatior), barnyardgrass (Echinochloa crus-galli), sandbur (southern sandbur, Cenchrus echinatus), arrowleaf sida (Sida rhombifolia), ryegrass, Italian (Italian ryegrass, Lolium multiflorum), dayflower, VA (Virginia dayflower, Commelina virginica), field bindweed (Convolvulus arvensis), cocklebur (common cocklebur, Xanthium strumarium), morningglory (Ipomoea coccinea), nightshade (eastern black nightshade, Solanum ptycanthum), kochia (Kochia scoparia), nutsedge, yellow (yellow nutsedge, Cyperus esculentus), smartweed (ladysthumb smartweed, Polygonum persicaria), velvetleaf (Abutilon theophrasti), and beggarticks (hairy beggarticks, Bidens pilosa), were planted into a silt loam soil and treated preemergence with test chemicals formulated in a non-phytotoxic solvent mixture which included a surfactant.
(§2) At the same time, plants from these crop and weed species and also waterhemp_RES1, (ALS & Triazine resistant common waterhemp, Amaranthus rudis), and waterhemp_RES2, (ALS & HPPD resistant common waterhemp, Amaranthus rudis) were planted in pots containing Redi-Earth® planting medium (Scotts Company, 14111 Scottslawn Road, Marysville, Ohio 43041) comprising spaghnum peat moss, vermiculite, wetting agent and starter nutrients were treated with postemergence applications of test chemicals formulated in the same manner. Plants ranged in height from 2 to 18 cm for postemergence treatments (1- to 4-leaf stage). Treated plants and controls were maintained in a greenhouse for 14 to 21 d, after which time all species were compared to controls and visually evaluated. Plant response ratings, summarized in Table E, are based on a scale of 0 to 100 where 0 is no effect and 100 is complete control. A dash (-) response means no test result.

[2] = system: pigweed, palmer (palmer pigweed, Amaranthus palmeri); conditions: scale 0 to 100
Description: as §1, §2

[3] = system: foxtail, giant (giant foxtail, Setaria faberii); conditions: Preemergence, scale 0 to 100
Description: as §1, §2

[4] = system: ryegrass, Italian (Italian ryegrass, Lolium multiflorum); conditions: scale 0 to 100
Description: as §1, §2

[5] = system: sandbur (southern sandbur, Cenchrus echinatus); conditions: scale 0 to 100
Description: as §1, §2

[6] = system: ragweed (common ragweed, Ambrosia elatior); conditions: Preemergence, scale 0 to 100
Description: as §1, §2

[7] = system: panicum, fall (fall panicum, Panicum dichotomiflorum); conditions: scale 0 to 100
Description: as §1, §2

[8] = system: waterhemp (common waterhemp, Amaranthus rudis); conditions: scale 0 to 100
Description: as §1, §2

[9] = system: velvetleaf (Abutilon theophrasti); conditions: Preemergence, scale 0 to 100
Description: as §1, §2

[10] = system: field bindweed (Convolvulus arvensis); conditions: scale 0 to 100
Description: as §1, §2

[11] = system: morningglory (Ipomoea coccinea); conditions: Preemergence, scale 0 to 100
Description: as §1, §2

[12] = system: beggarticks (hairy beggarticks, Bidens pilosa); conditions: scale 0 to 100
Description: as §1, §2

[13] = system: nightshade (eastern black nightshade, Solanum ptycanthum); conditions: Preemergence, scale 0 to 100
Description: as §1, §2

kochia (Kochia scoparia) = conditions: Preemergence, scale 0 to 100
Description: as §1, §2

[14] = system: barnyardgrass (Echinochloa crus-galli); conditions: scale 0 to 100
Description: as §1, §2

COc1cc(=O)n(-c2ccc(C(F)(F)F)cc2)nc1Cc1ccnc(C(F)(F)F)c1 [Compound 16, 5-methoxy-2-[4-(trifluoromethyl)phenyl]-6-[[2-(trifluoromethyl)-4-pyridinyl]methyl]-3(2H)-pyridazinone]
100: Plant response rating: Foxtail, Giant ([3]; 250 g ai/ha) | Plant response rating: Panicum, Fall ([7]; Preemergence, 250 g ai/ha) | Plant response rating: Waterhemp ([8]; Postemergence, 250 g ai/ha) | Plant response rating: Waterhemp ([8]; Preemergence, 62 g ai/ha) | Plant response rating: Waterhemp ([8]; Preemergence, 125 g ai/ha) | Plant response rating: Waterhemp ([8]; Preemergence, 250 g ai/ha) | Plant response rating: Field Bindweed ([10]; Preemergence, 250 g ai/ha) | Plant response rating: Nightshade ([13]; 125 g ai/ha) | Plant response rating: Nightshade ([13]; 250 g ai/ha)
60: Plant response rating: Arrowleaf Sida ([1]; Postemergence, 62 g ai/ha)
25: Plant response rating: Morningglory ([11]; 62 g ai/ha)
0: Plant response rating: Arrowleaf Sida ([1]; Preemergence, 62 g ai/ha) | Plant response rating: Arrowleaf Sida ([1]; Preemergence, 125 g ai/ha) | Plant response rating: Ragweed ([6]; 62 g ai/ha) | Plant response rating: Ragweed ([6]; 125 g ai/ha) | Plant response rating: Velvetleaf ([9]; 62 g ai/ha) | Plant response rating: Velvetleaf ([9]; 125 g ai/ha) | Plant response rating: Beggarticks ([12]; Preemergence, 62 g ai/ha) | Plant response rating: Beggarticks ([12]; Preemergence, 125 g ai/ha)
80: Plant response rating: Arrowleaf Sida ([1]; Postemergence, 250 g ai/ha) | Plant response rating: Sandbur ([5]; Preemergence, 250 g ai/ha) | Plant response rating: Waterhemp ([8]; Postemergence, 62 g ai/ha) | Plant response rating: Waterhemp ([8]; Postemergence, 125 g ai/ha) | Plant response rating: Morningglory ([11]; 250 g ai/ha) | Plant response rating: Nightshade ([13]; 62 g ai/ha)
15: Plant response rating: Barnyardgrass ([14]; Postemergence, 62 g ai/ha)
98: Plant response rating: Pigweed, Palmer ([2]; Preemergence, 62 g ai/ha) | Plant response rating: Pigweed, Palmer ([2]; Preemergence, 125 g ai/ha) | Plant response rating: Pigweed, Palmer ([2]; Preemergence, 250 g ai/ha) | Plant response rating: Kochia (kochia (Kochia scoparia); 62 g ai/ha) | Plant response rating: Kochia (kochia (Kochia scoparia); 125 g ai/ha) | Plant response rating: Kochia (kochia (Kochia scoparia); 250 g ai/ha)
70: Plant response rating: Pigweed, Palmer ([2]; Postemergence, 62 g ai/ha) | Plant response rating: Barnyardgrass ([14]; Preemergence, 250 g ai/ha)
65: Plant response rating: Sandbur ([5]; Preemergence, 125 g ai/ha) | Plant response rating: Field Bindweed ([10]; Postemergence, 125 g ai/ha) | Plant response rating: Morningglory ([11]; 125 g ai/ha)
40: Plant response rating: Ryegrass, Italian ([4]; Postemergence, 250 g ai/ha) | Plant response rating: Sandbur ([5]; Preemergence, 62 g ai/ha) | Plant response rating: Panicum, Fall ([7]; Postemergence, 125 g ai/ha)
35: Plant response rating: Sandbur ([5]; Postemergence, 125 g ai/ha) | Plant response rating: Barnyardgrass ([14]; Preemergence, 62 g ai/ha)
90: Plant response rating: Foxtail, Giant ([3]; 125 g ai/ha) | Plant response rating: Panicum, Fall ([7]; Preemergence, 125 g ai/ha)
95: Plant response rating: Pigweed, Palmer ([2]; Postemergence, 250 g ai/ha) | Plant response rating: Ragweed ([6]; 250 g ai/ha)
20: Plant response rating: Ryegrass, Italian ([4]; Postemergence, 62 g ai/ha) | Plant response rating: Ryegrass, Italian ([4]; Postemergence, 125 g ai/ha) | Plant response rating: Ryegrass, Italian ([4]; Preemergence, 62 g ai/ha) | Plant response rating: Ryegrass, Italian ([4]; Preemergence, 125 g ai/ha) | Plant response rating: Beggarticks ([12]; Preemergence, 250 g ai/ha)
5: Plant response rating: Arrowleaf Sida ([1]; Preemergence, 250 g ai/ha) | Plant response rating: Field Bindweed ([10]; Preemergence, 62 g ai/ha)
75: Plant response rating: Pigweed, Palmer ([2]; Postemergence, 125 g ai/ha) | Plant response rating: Foxtail, Giant ([3]; 62 g ai/ha) | Plant response rating: Field Bindweed ([10]; Postemergence, 250 g ai/ha)
30: Plant response rating: Sandbur ([5]; Postemergence, 62 g ai/ha) | Plant response rating: Panicum, Fall ([7]; Postemergence, 62 g ai/ha) | Plant response rating: Field Bindweed ([10]; Preemergence, 125 g ai/ha) | Plant response rating: Beggarticks ([12]; Postemergence, 62 g ai/ha) | Plant response rating: Barnyardgrass ([14]; Postemergence, 125 g ai/ha)
50: Plant response rating: Ryegrass, Italian ([4]; Preemergence, 250 g ai/ha) | Plant response rating: Sandbur ([5]; Postemergence, 250 g ai/ha) | Plant response rating: Panicum, Fall ([7]; Postemergence, 250 g ai/ha) | Plant response rating: Panicum, Fall ([7]; Preemergence, 62 g ai/ha) | Plant response rating: Velvetleaf ([9]; 250 g ai/ha) | Plant response rating: Field Bindweed ([10]; Postemergence, 62 g ai/ha) | Plant response rating: Beggarticks ([12]; Postemergence, 125 g ai/ha) | Plant response rating: Beggarticks ([12]; Postemergence, 250 g ai/ha) | Plant response rating: Barnyardgrass ([14]; Postemergence, 250 g ai/ha) | Plant response rating: Barnyardgrass ([14]; Preemergence, 125 g ai/ha)

— patent US10202361B2, “Pyridazinones as herbicides” (E I DU PONT DE NEMOURS AND COMPANY, priority 2014, dated 2019)
